Results taken from patent US20060222707A1 (priority 2005, published 2006).

Test: Small volume in vitro release test in 50 ml 0.1N HCl
Type: physicochemical
Conditions: 37° C., 150 rpm
Method: The formulations were tested for their small volume in vitro release characteristics in 50 ml 0.1N HCl at 37° C. and 150 rpm using the following procedure: III. Instrumentation (or Equivalent) a. Automated Dissolution System comprising: Hanson SR8 Plus Test Station Hanson Auto Plus Maximiser System Controller Hanson Auto Plus MultiFill Fraction Collector b. HPLC System comprising: pump—Merck Hitachi L-7100 autoinjector—Merck Hitachi L-7200 column oven—Merck Hitachi L-7300 detector—Merck Hitachi L-7400 interface and integration software—Merck Hitachi D-7000
0.1N HCl Preparation Dilute 8.5 ml HCl 37% to 1 liter with purified water. Procedure Place one weighed capsule in each vessel containing 0.1N HCl and immediately operate the apparatus for 30 min. Unless otherwise specified, 3 ml samples are withdrawn from each vessel and immediately filtered through PTFE membranes at 15 and 30 min.
The small volume was chosen as a model of the conditions in a fasted stomach.

CC(C)OC(=O)C(C)(C)Oc1ccc(C(=O)c2ccc(Cl)cc2)cc1 [Micronized Fenofibrate]
dissolution under small volume conditions (in words): no dissolution at all
